Here are results for one molecule from ChEMBL document CHEMBL4825753 (J Med Chem, 2021).

The source made the active and inactive calls. No cut-off for these calls is given here.

The target in data set [1] is T1, Receptor-type tyrosine-protein kinase FLT3 (Homo sapiens, UniProt P36888).
T1 sequence (P36888 whole entry): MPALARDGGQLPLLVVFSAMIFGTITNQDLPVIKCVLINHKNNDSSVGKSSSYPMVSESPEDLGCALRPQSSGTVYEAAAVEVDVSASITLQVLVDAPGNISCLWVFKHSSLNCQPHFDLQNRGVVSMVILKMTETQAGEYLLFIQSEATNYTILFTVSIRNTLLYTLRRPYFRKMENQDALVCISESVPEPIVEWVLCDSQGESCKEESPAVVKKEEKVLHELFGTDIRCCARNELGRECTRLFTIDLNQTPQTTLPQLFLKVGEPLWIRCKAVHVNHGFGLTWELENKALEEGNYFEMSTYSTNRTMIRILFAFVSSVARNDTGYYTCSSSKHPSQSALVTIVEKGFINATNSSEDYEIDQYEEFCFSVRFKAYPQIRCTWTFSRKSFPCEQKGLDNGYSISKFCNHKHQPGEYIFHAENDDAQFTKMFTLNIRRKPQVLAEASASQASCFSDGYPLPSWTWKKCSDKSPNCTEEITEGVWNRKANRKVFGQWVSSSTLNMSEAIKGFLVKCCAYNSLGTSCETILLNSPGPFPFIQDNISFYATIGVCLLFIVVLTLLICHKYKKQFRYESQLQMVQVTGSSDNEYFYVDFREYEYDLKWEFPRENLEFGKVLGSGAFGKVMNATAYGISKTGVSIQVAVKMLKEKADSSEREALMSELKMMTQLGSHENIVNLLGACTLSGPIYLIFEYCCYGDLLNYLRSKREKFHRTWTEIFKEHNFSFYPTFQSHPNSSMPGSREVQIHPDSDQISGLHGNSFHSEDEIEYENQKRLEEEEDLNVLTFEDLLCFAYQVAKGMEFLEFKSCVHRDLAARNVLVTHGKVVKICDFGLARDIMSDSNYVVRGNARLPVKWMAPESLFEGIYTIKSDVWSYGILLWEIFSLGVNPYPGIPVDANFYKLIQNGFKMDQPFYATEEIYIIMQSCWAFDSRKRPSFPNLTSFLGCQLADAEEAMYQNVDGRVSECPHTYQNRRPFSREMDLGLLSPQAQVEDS
Kind of data set: Inhibition of FLAG-tagged FLT3 (unknown origin) transfected in Cos-7 cells assessed as phosphorylation level incubated for 1 hr by ELISA. The format is cell-based. For orientation: An ELISA detects its analyte on a solid surface through an enzyme-linked reagent.

A short description of data set [2]: Lipophilicity, log D of the compound at pH 7.4. The data set is classed as physicochemical. The following applies: buffer.
For data set [3], the system named is BaF3. Kind of data set: Growth inhibition of mouse BaF3 cells transfected with MER assessed as inhibition of cell growth incubated for 72 hrs by Cell-titer-Glo assay. The format is functional.
Data set [4] deals with BaF3. In words: Growth inhibition of mouse BaF3 cells transfected with AXL assessed as inhibition of cell growth incubated for 72 hrs by Cell-titer-Glo assay. The format is functional.
In data set [5] the test system is BaF3. Kind of data set: Growth inhibition of mouse BaF3 cells transfected with FLT3 assessed as inhibition of cell growth incubated for 72 hrs by Cell-titer-Glo assay. The data set is classed as functional.
Data set [6] has as its system BaF3. Kind of data set: Growth inhibition of mouse BaF3 cells transfected with Tyro3 assessed as inhibition of cell growth incubated for 72 hrs by Cell-titer-Glo assay. The format is functional.
Data set [7] deals with BaF3. Kind of data set: Growth inhibition of mouse BaF3 cells assessed as inhibition of cell growth incubated for 72 hrs by Cell-titer-Glo assay. The data set is classed as functional.
Data set [8] relates to BaF3. Kind of data set: Antitumour activity against mouse BaF3 cells transfected with MER implanted in C57BL/6J mouse assessed as reduction in tumour growth at 3 to 100 mg/kg, po bid for 6 days. The data set is classed as functional, organism-based. The following applies: dose 3-100 mg/kg, time 6.0 day.
Data set [9] relates to BaF3. Kind of data set: Antitumour activity against mouse BaF3 cells transfected with AXL implanted in C57BL/6J mouse assessed as reduction in tumour growth at 100 mg/kg, po bid for 6 days. The data set is classed as functional, organism-based. The following applies: time 6.0 day.
A short description of data set [10]: Fraction unbound in C57BL/6J mouse implanted with mouse BaF3 cells transfected with MER in at 3 to 100 mg/kg, po bid for 6 days. The format is ADME, organism-based. Conditions: in vivo, dose 3-100 mg/kg, time 6 day.
The nature of data set [11]: Fraction unbound in C57BL/6J mouse implanted with mouse BaF3 cells transfected with AXL in at 3 to 100 mg/kg, po bid for 6 days. The data set is classed as ADME, organism-based. The following applies: in vivo, dose 3-100 mg/kg, time 6 day.
For data set [12], the system named is BaF3. In words: Antitumour activity against mouse BaF3 cells transfected with MER implanted in C57BL/6J mouse assessed as reduction in MER phosphorylation at 30 to 100 mg/kg, po bid for 6 days by western blot analysis. The format is functional, organism-based. Conditions: dose 30-100 mg/kg, time 6.0 day.
Data set [13] relates to BaF3. Kind of data set: Antitumour activity against mouse BaF3 cells transfected with AXL implanted in C57BL/6J mouse assessed as reduction in AXL phosphorylation at 30 to 100 mg/kg, po bid for 6 days western blot analysis. The format is functional, organism-based. Conditions: dose 30-100 mg/kg, time 6.0 day.
The test system of another data set is MC-38. Kind of data set: Antitumour activity against mouse MC38 cells implanted in C57BL6 mouse assessed as increase in survival at 100 mg/kg, po bid for 2 weeks co-treatment with anti-PD1 further treated with ionizing radiation. The data set is classed as functional, organism-based.

Take `CN1CCN(Cc2ccc(-c3ccc(CO[C@H]4CCC[C@@H]4NC(=O)c4cc(-c5cnn(C)c5)cnc4N)cc3)cc2)CC1`: the concentration for half-maximal inhibition (IC50) in data set [1] was 10 µM. The molecule also registered a logD in [2] of 2.8. The 50% growth inhibitory concentration (GI50) in the data set with BaF3 [3] is 0.00794 µM; in the data set on BaF3 [4] it was 0.0501 µM; in the data set with BaF3 [5], 5.01 µM; in the data set on BaF3 [6], 3.16 µM; in the data set with BaF3 [7] it was 12.6 µM. The outcome with BaF3 [8], with BaF3 [9], in the data set with BaF3 [12], with BaF3 [13] and with MC-38 was Active. In addition, the fraction unbound at 144 h in [10] and in data set [11] was 0.14 in each case.

What is called IC50 is the concentration that gives 50% inhibition. As a reminder, the logD is lipophilicity at a set pH, counting ionised and neutral species. Lower therefore signals a more hydrophilic compound. By GI50 is commonly meant the concentration that inhibits growth by half. For orientation: fraction unbound means the share of the substance not bound to proteins or other matrix. Read a low fraction unbound as little free substance.
